Patent publication US9707305B2, “Formulas for diagnosing and treating hormone-dependent cancers and cancers of the organs responsible for steroid hormone synthesis” (Commissariat à l'énergie atomique et aux énergies …, priority 2011, dated 2017)

Assay: Biodistribution of the nano-emulsion of Example 1.1 (radioactivity and fluorescence per organ)
Assay type: in vivo
Protocol: In the following examples, the radioactivity was counted with the TRiCarb Counter (Ref: Packard, Liquid Scintillation Analyzers; Models 2200CA).
Fluobeam 700 (Fluoptics) is the apparatus with which the whole of the organs from the biodistribution were analyzed in fluorescence as well as the one with which the biodistribution kinetics of the nano-emulsions were established in vivo. This imaging system allows viewing of the fluorescence in spectral bands from 700 to 850 nm for a 650 nm excitation. The apparatus consists of an electric case containing the laser of class 3B, its power supply and an optical head containing the CCD camera.
The nano-emulsions of Example 1 were injected into FVB female and male mice. As a comparison, a mixture of three tracers ([3H]CHE, [14C]CO and DiD) (not formulated as a nano-emulsion) was injected in order to observe the distribution of the tracers in the absence of droplets being used as a distribution carrier.
Tables 6 to 14 provide the biodistribution results of each tracer ([3H]CHE, [14C]CO and DiD) expressed as a percentage of the dose injected per gram of tissue (or [3H]CHE and [14C]CO) or as fluorescence intensity (for DiD) depending on the organ of the mouse, 15 minutes (Table 6), 2 hours (Table 7), 4 hours (Table 8), 6 hours (Table 9), 16 hours (Table 10), 24 hours (Table 11), 72 hours (Table 12), 120 hours (Table 13) and 168 hours (Table 14), after injection into an FVB female mouse of the nano-emulsion of Example 1.1. (nano-emulsion according to the invention comprising the three tracers ([3H]CHE, [14C]CO and DiD).

[1] = 15 min after injection of nano-emulsion of Example 1.1, FVB female mouse
[2] = 2 h after injection of nano-emulsion of Example 1.1, FVB female mouse
[3] = 4 h after injection of nano-emulsion of Example 1.1, FVB female mouse
[4] = 16 h (Table 9 head) after injection of nano-emulsion of Example 1.1, FVB female mouse
[5] = 24 h (Table 10 head) after injection of nano-emulsion of Example 1.1, FVB female mouse
[6] = 48 h (Table 11 head) after injection of nano-emulsion of Example 1.1, FVB female mouse
[7] = 72 h after injection of nano-emulsion of Example 1.1, FVB female mouse
[8] = 120 h after injection of nano-emulsion of Example 1.1, FVB female mouse
[9] = 168 h after injection of nano-emulsion of Example 1.1, FVB female mouse

## CCCCCCCCCCCCCCCCO[C@H]1CC[C@@]2(C)C(=CC[C@H]3[C@@H]4CC[C@H]([C@H](C)CCCC(C)C)[C@@]4(C)CC[C@@H]32)C1 [[3H]CHE, cholesteryl hexadecylether]
[1]
  biodistribution, Adrenal glands (MEAN): 10.60 % of injected dose per gram of
  biodistribution, Brain (MEAN): 0.476 % of injected dose per gram of
  biodistribution, Fat (MEAN): 1.10 % of injected dose per gram of
  biodistribution, Heart (MEAN): 8.303 % of injected dose per gram of
  biodistribution, Intestine (MEAN): 1.71 % of injected dose per gram of
  biodistribution, Kidney (MEAN): 4.09 % of injected dose per gram of
  biodistribution, Liver (MEAN): 8.26 % of injected dose per gram of
  biodistribution, Lung (MEAN): 3.91 % of injected dose per gram of
  biodistribution, Muscle (MEAN): 0.675 % of injected dose per gram of
  biodistribution, Ovary (MEAN): 5.38 % of injected dose per gram of
  biodistribution, Pancreas (MEAN): 1.233 % of injected dose per gram of
  biodistribution, Salivary glands (MEAN): 1.157 % of injected dose per gram of
  biodistribution, Spleen (MEAN): 3.63 % of injected dose per gram of
  biodistribution, Uterus (MEAN): 0.90 % of injected dose per gram of
[2]
  biodistribution, Adrenal glands (MEAN): 21.12 % of injected dose per gram of
  biodistribution, Brain (MEAN): 0.26 % of injected dose per gram of
  biodistribution, Fat (MEAN): 0.76 % of injected dose per gram of
  biodistribution, Heart (MEAN): 4.64 % of injected dose per gram of
  biodistribution, Intestine (MEAN): 2.44 % of injected dose per gram of
  biodistribution, Kidneys (MEAN): 3.83 % of injected dose per gram of
  biodistribution, Liver (MEAN): 31.09 % of injected dose per gram of
  biodistribution, Lung (MEAN): 4.44 % of injected dose per gram of
  biodistribution, Muscle (MEAN): 0.45 % of injected dose per gram of
  biodistribution, Ovary (MEAN): 29.28 % of injected dose per gram of
  biodistribution, Pancreas (MEAN): 1.43 % of injected dose per gram of
  biodistribution, Salivary glands (MEAN): 1.42 % of injected dose per gram of
  biodistribution, Spleen (MEAN): 5.10 % of injected dose per gram of
  biodistribution, Uterus (MEAN): 2.23 % of injected dose per gram of
[3]
  biodistribution, Adrenal glands (MEAN): 28.13 % of injected dose per gram of
  biodistribution, Brain (MEAN): 0.19 % of injected dose per gram of
  biodistribution, Fat (MEAN): 1.40 % of injected dose per gram of
  biodistribution, Heart (MEAN): 4.94 % of injected dose per gram of
  biodistribution, Intestine (MEAN): 2.46 % of injected dose per gram of
  biodistribution, Kidney (MEAN): 2.51 % of injected dose per gram of
  biodistribution, Liver (MEAN): 37.43 % of injected dose per gram of
  biodistribution, Lungs (MEAN): 4.02 % of injected dose per gram of
  biodistribution, Muscle (MEAN): 0.41 % of injected dose per gram of
  biodistribution, Ovary (MEAN): 39.41 % of injected dose per gram of
  biodistribution, Pancreas (MEAN): 1.01 % of injected dose per gram of
  biodistribution, Salivary glands (MEAN): 1.09 % of injected dose per gram of
  biodistribution, Spleen (MEAN): 5.00 % of injected dose per gram of
  biodistribution, Uterus (MEAN): 1.69 % of injected dose per gram of
[4]
  biodistribution, Adrenal glands (MEAN): 43.16 % of injected dose per gram of
  biodistribution, Brain (MEAN): 0.13 % of injected dose per gram of
  biodistribution, Fat (MEAN): 1.36 % of injected dose per gram of
  biodistribution, Heart (MEAN): 3.49 % of injected dose per gram of
  biodistribution, Intestine (MEAN): 4.87 % of injected dose per gram of
  biodistribution, Kidney (MEAN): 2.06 % of injected dose per gram of
  biodistribution, Liver (MEAN): 47.67 % of injected dose per gram of
  biodistribution, Lungs (MEAN): 4.63 % of injected dose per gram of
  biodistribution, Muscle (MEAN): 0.76 % of injected dose per gram of
  biodistribution, Ovary (MEAN): 52.26 % of injected dose per gram of
  biodistribution, Pancreas (MEAN): 1.17 % of injected dose per gram of
  biodistribution, Salivary glands (MEAN): 1.27 % of injected dose per gram of
  biodistribution, Spleen (MEAN): 7.48 % of injected dose per gram of
  biodistribution, Uterus (MEAN): 3.91 % of injected dose per gram of
[5]
  biodistribution, Adrenal glands (MEAN): 39.68 % of injected dose per gram of
  biodistribution, Brain (MEAN): 0.09 % of injected dose per gram of
  biodistribution, Fat (MEAN): 0.88 % of injected dose per gram of
  biodistribution, Heart (MEAN): 3.53 % of injected dose per gram of
  biodistribution, Intestine (MEAN): 2.78 % of injected dose per gram of
  biodistribution, Kidney (MEAN): 1.50 % of injected dose per gram of
  biodistribution, Liver (MEAN): 48.76 % of injected dose per gram of
  biodistribution, Lung (MEAN): 3.21 % of injected dose per gram of
  biodistribution, Muscle (MEAN): 0.46 % of injected dose per gram of
  biodistribution, Ovary (MEAN): 38.06 % of injected dose per gram of
  biodistribution, Pancreas (MEAN): 0.64 % of injected dose per gram of
  biodistribution, Salivary glands (MEAN): 1.40 % of injected dose per gram of
  biodistribution, Spleen (MEAN): 7.50 % of injected dose per gram of
  biodistribution, Uterus (MEAN): 1.82 % of injected dose per gram of
[6]
  biodistribution, Adrenal glands (MEAN): 42.26 % of injected dose per gram of
  biodistribution, Brain (MEAN): 0.08 % of injected dose per gram of
  biodistribution, Fat (MEAN): 1.05 % of injected dose per gram of
  biodistribution, Heart (MEAN): 3.52 % of injected dose per gram of
  biodistribution, Intestine (MEAN): 4.43 % of injected dose per gram of
  biodistribution, Kidney (MEAN): 1.63 % of injected dose per gram of
  biodistribution, Liver (MEAN): 58.43 % of injected dose per gram of
  biodistribution, Lungs (MEAN): 3.91 % of injected dose per gram of
  biodistribution, Muscle (MEAN): 0.36 % of injected dose per gram of
  biodistribution, Ovary (MEAN): 36.42 % of injected dose per gram of
  biodistribution, Pancreas (MEAN): 1.00 % of injected dose per gram of
  biodistribution, Salivary glands (MEAN): 1.09 % of injected dose per gram of
  biodistribution, Spleen (MEAN): 12.32 % of injected dose per gram of
  biodistribution, Uterus (MEAN): 3.75 % of injected dose per gram of
[7]
  biodistribution, Adrenal glands (MEAN): 36.92 % of injected dose per gram of
  biodistribution, Brain (MEAN): 0.08 % of injected dose per gram of
  biodistribution, Fat (MEAN): 0.85 % of injected dose per gram of
  biodistribution, Heart (MEAN): 2.98 % of injected dose per gram of
  biodistribution, Intestine (MEAN): 3.58 % of injected dose per gram of
  biodistribution, Kidney (MEAN): 1.27 % of injected dose per gram of
  biodistribution, Liver (MEAN): 39.73 % of injected dose per gram of
  biodistribution, Lungs (MEAN): 2.95 % of injected dose per gram of
  biodistribution, Muscle (MEAN): 0.22 % of injected dose per gram of
  biodistribution, Ovary (MEAN): 25.11 % of injected dose per gram of
  biodistribution, Pancreas (MEAN): 0.74 % of injected dose per gram of
  biodistribution, Salivary glands (MEAN): 1.10 % of injected dose per gram of
  biodistribution, Spleen (MEAN): 7.65 % of injected dose per gram of
  biodistribution, Uterus (MEAN): 5.63 % of injected dose per gram of
[8]
  biodistribution, Adrenal gland (MEAN): 41.92 % of injected dose per gram of
  biodistribution, Brain (MEAN): 0.08 % of injected dose per gram of
  biodistribution, Fat (MEAN): 0.68 % of injected dose per gram of
  biodistribution, Heart (MEAN): 2.59 % of injected dose per gram of
  biodistribution, Intestine (MEAN): 3.60 % of injected dose per gram of
  biodistribution, Kidney (MEAN): 1.29 % of injected dose per gram of
  biodistribution, Liver (MEAN): 39.13 % of injected dose per gram of
  biodistribution, Lungs (MEAN): 3.30 % of injected dose per gram of
  biodistribution, Muscle (MEAN): 0.27 % of injected dose per gram of
  biodistribution, Ovary (MEAN): 16.92 % of injected dose per gram of
  biodistribution, Pancreas (MEAN): 1.00 % of injected dose per gram of
  biodistribution, Salivary glands (MEAN): 2.14 % of injected dose per gram of
  biodistribution, Spleen (MEAN): 9.69 % of injected dose per gram of
  biodistribution, Uterus (MEAN): 4.99 % of injected dose per gram of
[9]
  biodistribution, Adrenal glands (MEAN): 29.30 % of injected dose per gram of
  biodistribution, Brain (MEAN): 0.07 % of injected dose per gram of
  biodistribution, Fat (MEAN): 0.99 % of injected dose per gram of
  biodistribution, Heart (MEAN): 2.19 % of injected dose per gram of
  biodistribution, Intestine (MEAN): 2.80 % of injected dose per gram of
  biodistribution, Kidneys (MEAN): 1.44 % of injected dose per gram of
  biodistribution, Liver (MEAN): 32.70 % of injected dose per gram of
  biodistribution, Lungs (MEAN): 1.70 % of injected dose per gram of
  biodistribution, Muscle (MEAN): 0.37 % of injected dose per gram of
  biodistribution, Ovary (MEAN): 20.61 % of injected dose per gram of
  biodistribution, Pancreas (MEAN): 0.79 % of injected dose per gram of
  biodistribution, Salivary glands (MEAN): 2.01 % of injected dose per gram of
  biodistribution, Spleen (MEAN): 10.71 % of injected dose per gram of
  biodistribution, Uterus (MEAN): 4.86 % of injected dose per gram of
